According to patent US20100249383A1, “Novel Ligand Involved In The Transmigration Of Leukocytes Across the Endothelium and Uses Therefor” (The Regents of The University of California and The Burnham …, priority 2001, published 2010):

How the values were obtained:
mAbGB3.1 = test: Inhibition ELISA of mAbGB3.1 binding to bovine lung proteins / immobilized BSA neoglycoproteins; set-up: species or system mouse; details: for inhibition of mAbGB3.1 binding by glycosaminoglycan-like compounds: at 1 to 5 mM; for inhibition of mAbGB3.1 reactivity by carboxylic acids: low mM concentrations, pH 7.5, FIG. 2 Panel C; for effect on mAbGB3.1 reactivity in the ELISA assay: sulfated or phosphorylated sugars tested at or below 5 mM, data not shown
Protocol: Binding in the absence of inhibitor was defined as 100%. […] Binding at pH 7.0 was defined as 100% for each. […] Binding in the absence of inhibitor was defined as 100%.
In these ELISAs, 96-well plates were coated with 250 ng of BSA neoglycoproteins at incubated either for 6 h at room temperature, or 4 h at 37° C. Plates were washed and blocked with 3% BSA in PBS overnight, incubated with hybridoma culture supernatants or with purified IgG diluted in PBS containing 1% BSA and 0.05% Tween 20. Incubations were for 1-2 h at room temperature, or overnight at 4° C. The plates were then washed and incubated with alkaline phosphatase conjugated goat anti-mouse IgG, followed by development with p-nitrophenyl phosphate substrate. Absorbance was measured at 405 nm in an ELISA plate reader.
Briefly, 96-well plates were coated with 50 ng of bovine albumin (BSA) neoglycoproteins containing total bovine lung glycopeptides coupled to BSA using glutaraldehyde for 4 h at 37° C. The neoglycoproteins were prepared for immunization screening as described above.
Plates were washed and blocked with 3% BSA in phosphate-buffered saline (PBS) overnight at 4° C. […] The plates were then washed and incubated with alkaline phosphatase conjugated goat anti-mouse IgG, followed by development with p-nitrophenyl phosphate substrate. Absorbance was measured at 405 nm in an ELISA plate reader.

[1] = test system: 0.3 M asialo-COO^− glycopeptide-BSA neoglycoproteins; test: ELISA binding of purified proteins to immobilized carboxylated bovine lung glycans; details: FIG. 19 or data not shown
Protocol: In additional ELISA experiments, 96-well plates were coated with 0.3 M asialo-COO^− glycopeptide-BSA neoglycoproteins (250 ng/well) for 4 h at 37° C. (control wells had BSA alone) and blocked with 3% BSA in PBS overnight. The wells were then incubated with purified human annexin I or S100A8/A9 complexes (as appropriate), in 10 mM HUES buffer pH 7.5 containing 150 mM NaCl, 5 mM KCl, 1.2 mM MgCl2 and 1.3 mM CaCl2, in the absence or presence of varying concentrations of 0.3 M asialo-COO^− glycopeptides or 0.3 M asialo-CONHMe-glycopeptides for 2 h at room temperature. This was followed by incubation with anti-bovine annexin I antibody or anti-human S100A8 or anti-S100A9 for 2 h at room temperature. Wells were then washed and incubated with alkaline phosphatase conjugated goat anti-mouse IgG, followed by development with p-nitrophenyl phosphate substrate.
In this Example, experiments conducted to assess amphoterin binding to COO^− glycopeptide coated plates was assayed as described earlier for annexin I and S100 proteins. In addition, bound protein was detected using anti-amphoterin. mAbGB3.1 binding to sRAGE was assessed by first coating sRAGE on microtiter wells for 4 h at 37° C. After blocking with 3% BSA in PBS overnight, wells were incubated with mAbGB3.1 in the presence and absence of COO^−or CONHMe-glycopeptide and developed as described above.

[2] = test system: BSA coupled 0.3 M asialo-COO^− lung glycopeptides; test: Depletion of annexin I and S100 proteins from human neutrophil lysates by immobilized bovine lung glycopeptides; type: binding; details: for depletion from neutrophil extracts after binding to the glycopeptides: immunoblot of supernatants, FIG. 15, FIG. 16
Protocol: In these assays, extracts from activated human neutrophils were first incubated with immobilized asialo-COO^− glycopeptides, and the residual proteins in the supernatants were analyzed by immunoblots. Since the S100A8/A9 complexes are typically destroyed during SDS-PAGE (i.e., break down into monomers), the intensity of staining in immunoblots was beyond the linearity of reaction for any quantitative evaluation.
In these experiments, 96-well plates were coated with 250 ng of BSA coupled 0.3 M asialo-COO^− lung glycopeptides for 4 h at 37° C. and blocked with 3% BSA in PBS overnight. Human neutrophil extracts were sequentially incubated in each of four wells for 30 min/well at 37° C. in leukocyte activation buffer (described above), in presence or absence of 200 μM 0.3 M asialo-COO^− glycopeptides or asialo-CONHMe-glycopeptides. After incubation, the supernatants from the incubation wells were collected and protein depletion was analyzed by immunoblotting using the respective antibodies. For detection of S100A8/A9 complexes, the proteins in the supernatants were stabilized by chemical cross-linking using bis-sulfosuccinimidyl suberate (BS^3) as known in the art (See, Staros, Biochem., 21:3590 [1982]). Briefly, the cross linker was added from a fresh 2 mM stock solution to neutrophil lysates obtained as described above, to a final concentration of 200 μM, and the mixture was incubated at room temperature for 30 min. Reactions were quenched by the addition of 1 M Tris to a final concentration of 10 mM and samples were stored at −80° C., until they were assayed. Cross-linked samples were incubated with 2-mercaptoethanol prior to separation on SDS-PAGE. Since crude lysates were used in the cross-linking, it is conceivable that non-specific cross-linking could occur. Therefore, only the bands that were still strongly stained with increasing dilution of both anti-S100A8 and anti-S100A9 were identified.

[3] = test system: [2-^3H]mannose-labeled CPAE glycoproteins; test: Precipitation of mannose-labeled glycoproteins and cross-binding; set-up: species or system bovine; details: primary binding
Protocol: Calf pulmonary artery endothelial cells (CPAE) cells were labeled with [2-^3H] mannose at 20 μCi/ml for 24 h in alpha MEM containing 10% fetal bovine serum. Cells were harvested by trypsinization, washed thrice in PBS, and lysed in PBS containing protease inhibitors and 0.5% NP40. Protein-rich lysates were prepared by ultrafiltration on YM10 membranes. Purified S100A8/A9 or annexin I proteins were immobilized on Affigel-10, and mixed with the labeled glycoproteins from CPAE cells in 10 mM HEPES buffer pH 7.5 containing 150 mM NaCl, 5 mM KCl, 1.2 mM MgCl2 and 1.3 mM CaCl2 after preclearing the lysates with BSA-Affigel 10. For immunoprecipitations using mAbGB3.1, lysates were precleared with normal mouse IgG-protein G beads and then incubated with Protein G coupled to mAbGB3.1 IgG in PBS. After overnight incubation at 4° C., the individual pellets were washed free of all unbound label until no more counts appeared in the washes, and the radioactivity associated with the pellets was measured.
For cross-binding, label associated with each pellet was first eluted using high salt (5 M MgCl2, which eluted >70% bound label). The eluates were repeatedly desalted on YM10 membranes and resuspended in the respective buffers. Label eluted from mAbGB3.1 gels was mixed with immobilized S100A8/A9 or annexin I and vice versa. Again, after overnight incubation at 4° C., the individual pellets were washed free of all unbound label and counted. […] In comparison, immobilized annexin I precipitated only about 2-3% of mannose labeled glycoproteins from endothelial cells (data not shown).

| inhibition of mAbGB3.1 reactivity by carboxylic acids (mAbGB3.1) | effect on mAbGB3.1 reactivity in the ELISA assay (mAbGB3.1) | Molecule | other results |
| --- | --- | --- | --- |
| – | – | N[C@H]1C(O)O[C@H](CO)[C@H](O)[C@@H]1O (stereo partly shown) [Chondrosarnine, chondrosamine] | inhibition of mAbGB3.1 binding by glycosaminoglycan-like compounds (mAbGB3.1): do not inhibit binding |
| inhibited | – | O=C(O)CN(CCN(CC(=O)O)CC(=O)O)CC(=O)O [EDTA, ethylenediamine tetraacetic acid] | – |
| – | unaffected | O=C[C@H](O)[C@@H](O)[C@@H](O)[C@H](O)COP(=O)(O)O [Gal-6-phosphate, galactose-6-phosphate] | – |
| – | unaffected | O=C[C@H](O)[C@@H](O)[C@@H](O)[C@H](O)COS(=O)(=O)O [Gal-6-sulfate, galactose-6-sulfate] | – |
| – | unaffected | O=P(O)(O)O[C@H]1O[C@H](CO)[C@@H](O)[C@H](O)[C@H]1O [Glc-1-phosphate, glucose-1-phosphate] | – |
| – | unaffected | O=C[C@H](O)[C@@H](O)[C@H](O)[C@H](O)COP(=O)(O)O [Glc-6-phosphate, glucose-6-phosphate] | – |
| – | unaffected | O=C[C@H](O)[C@@H](O)[C@H](O)[C@H](O)COS(=O)(=O)O [Glc-6-sulfate, glucose-6-sulfate] | – |
| – | unaffected | CC(=O)N[C@H]1C(OP(=O)(O)O)O[C@H](CO)[C@@H](O)[C@@H]1O (stereo partly shown) [GlcNAc-1-phosphate, glucose-N-acetyl-1-phosphate] | – |
| – | unaffected | CC(=O)N[C@H]1C(O)O[C@H](COP(=O)(O)O)[C@@H](O)[C@@H]1O (stereo partly shown) [GlcNAc-6-phosphate, glucose-N-acetyl-6-phosphate] | – |
| – | unaffected | O=C[C@@H](O)[C@@H](O)[C@H](O)[C@H](O)COP(=O)(O)O [Man-6-phosphate, mannose-6-phosphate] | – |
| inhibited | – | CC(=O)O [acetate] | – |
| inhibited | – | O=C(O)CC(O)(CC(=O)O)C(=O)O [citrate] | – |
| did not inhibit binding | – | O=C[C@H](O)[C@@H](O)[C@@H](O)[C@H](O)C(=O)O [galacturonic acid] | – |
| did not inhibit binding | – | O=C[C@H](O)[C@@H](O)[C@H](O)[C@H](O)C(=O)O [glucuronic acid] | – |
| did not inhibit binding | – | CC(O)C(=O)O (stereo not shown) [lactic acid] | – |
| did not inhibit binding | – | CC(=O)C(=O)O [pyruvic acid] | – |
| inhibited | – | O=C(O)CCC(=O)O [succinate] | – |
| – | – | S100A1: other S100 protein | binding to immobilized carboxylated vs neutralized glycans [1]: remained constant |
| – | – | S100A8 homodimer: cross-linked S100A8 homodimer from human neutrophil extracts | depletion from neutrophil extracts after binding to the glycopeptides [2]: depleted |
| – | – | S100A8/A9 heterodimer: S100A8•S100A9 heterodimer from human neutrophil extracts | depletion from neutrophil extracts after binding to the glycopeptides [2]: depleted |
| – | – | S100A8/A9 heterotrimer: (S100A8)2•S100A9 heterotrimer from human neutrophil extracts | depletion from neutrophil extracts after binding to the glycopeptides [2]: depleted |
| – | – | S100A8: recombinant S100A8 alone | binding to immobilized carboxylated vs neutralized glycans [1]: does not show specific binding |
| – | – | S100B: other S100 protein | binding to immobilized carboxylated vs neutralized glycans [1]: remained constant |
| – | – | chondroitin sulfate | inhibition of mAbGB3.1 binding by glycosaminoglycan-like compounds (mAbGB3.1): do not inhibit binding |
| – | – | hyaluronic acid [hyaluronic acid (tetramer and octamer)] | inhibition of mAbGB3.1 binding by glycosaminoglycan-like compounds (mAbGB3.1): do not inhibit binding |
| – | – | annexin I: human annexin I, from neutrophil lysates or recombinant full length from E. coli (protein, UniProt P04083 2-346, looked up) Annexin A1: AMVSEFLKQAWFIENEEQEYVQTVKSSKGGPGSAVSPYPTFNPSSDVAALHKAIMVKGVDEATIIDILTKRNNAQRQQIKAAYLQETGKPLDETLKKALTGHLEEVVLALLKTPAQFDADELRAAMKGLGTDEDTLIEILASRTNKEIRDINRVYREELKRDLAKDITSDTSGDFRNALLSLAKGDRSEDFGVNEDLADSDARALYEAGERRKGTDVNVFNTILTTRSYPQLRRVFQKYTKYSKHDMNKVLDLELKGDIEKCLTAIVKCATSKPAFFAEKLHQAMKGVGTRHKALIRIMVSRSEIDMNDIKAFYQKMYGISLCQAILDETKGDYEKILVALCGGN | depletion from the neutrophil preparations after binding to carboxylate-enriched glycopeptides ([2]; intact (37 kDa) protein, FIG. 16 lane 2): > 90%; % Bound Radioactivity (mean ± SD) [3]: 2-3%; binding to immobilized carboxylated vs neutralized glycans [1]: bound |
